Patent publication US5514664A, “1,4-dihydropyridines for application in combatting resistance to drugs” (BYK Gulden Lomberg Chemische Fabrik GmbH, priority 1990, dated 1996)
Values joined by “and” are separate entries in the source; they are usually repeats but may differ in a detail not shown here. Equal values may be shown once. Where a name gives a salt, the structure may show the parent alone.

How the values were obtained:
[1] = test system: MOLT/DAU-8 cells; test: cells; type: cell-based
Text: (§1) For this, a selected compound of the formula I, the compound (-)-1,4-dihydro-2,6-dimethyl-4-(3-nitrophenyl)-pyridine-3,5-dicarboxylic acid 3-methyl 5- 3(4,4-diphenyl-1-piperidinyl)-propyl! ester hydrochloride (=compound 1), was investigated in more detail as follows:
(§2) The tumour cell lines MOLT/VCR-5×9 (starting density: 1.14×10^6 cells/ml), MOLT/DAU-8 (starting density: 1.01×10^6 cells/ml) and CCRF CEMVCR1000+(starting density: 2.00×10^6 cells/ml), which are resistant towards the cytostatics vincristine and daunomycin, were incubated for 72.5 to 73.25 hours in accordance with the following test pattern:
(§3) 2. Control with the cytostatic relating to the particular cell line (for the concentrations, see below)
(§4) 4. Compound 1 in concentrations of 10^-6 and 10^-7 M
(§5) 5. Compound 1 in concentrations of 10^-6 and 10^-7 M, together with the cytostatic relating to the particular cell line (for the concentrations, see below).
(§6) The cytostatic concentrations used for the individual cell lines were: […]

[2] = test system: MOLT/VCR-5×9 cells; test: cells; type: cell-based
Text: as §1, §2, §3, §4, §5
(§7) The cytostatic concentrations used for the individual cell lines were:
(§8) Vincristine: 5×10^-9 M (for MOLT/VCR-5×9)

[3] = test system: CCRF CEM VCR1000+ cells; test: cells; type: cell-based
Text: as §1, §2, §3, §4, §5, §6

[4] = test system: MOLT/VCR-5×9, MOLT/DAU-8 and CCRF CEM VCR1000+ tumour cell lines
Text: as §1, §2, §3, §4, §5, §7, §8

[5] = 73.25 h, read-out: Growth inhibition in %, compound 1 by itself
[6] = Homo sapiens, CCRF-CEM/VCR-1000, 73.25 h, read-out: Growth inhibition in %, compound 1 by itself

COc1cccc2c1C(=O)c1c(O)c3c(c(O)c1C2=O)C[C@@](O)(C(C)=O)C[C@@H]3O[C@H]1C[C@H](N)[C@H](O)[C@H](C)O1 [Daunomycin, reference compound]
inhibition at 0.01 µM ([1]; MOLT/DAU-8, daunomycin 10^-8 M by itself, 72.5 to 73.25 h, vs DMSO control, read-out: Growth inhibition in %, cytostatic by itself): 0%

COC(=O)C1=C(C)NC(C)=C(C(=O)OCCCN2CCC(c3ccccc3)(c3ccccc3)CC2)C1c1cccc([N+](=O)[O-])c1 (single isomer, unassigned; (-)) [Compound 1, (-)-1,4-dihydro-2,6-dimethyl-4-(3-nitrophenyl)-pyridine-3,5-dicarboxylic acid 3-methyl 5-3(4,4-diphenyl-1-piperidinyl)-propyl! ester hydrochloride]
Growth inhibition in %, compound 1 + cytostatic [2]: 99
inhibition at 0.1 µM [2, 5]: 66%
inhibition at 10 µM [2, 5]: 79%
inhibition at 0.1 µM [3, 6]: 10%
inhibition at 10 µM [3, 6]: 67%
Growth inhibition in %, compound 1 + cytostatic ([3]; hydrochloride): 65 and 90
inhibition at 0.1 µM [1, 5]: 43%
inhibition at 10 µM [1, 5]: 53%
Growth inhibition in %, compound 1 + cytostatic ([1]; hydrochloride): 56 and 96
concentration dependence of growth inhibition (in words) [4]: This inhibition of growth depends on the concentration
inhibition of growth by compound 1 by itself (in words) [4]: All resistant cells are inhibited in their growth
overcoming of resistance and intensification of cytotoxicity (in words) [4]: the resistance towards cytostatics is overcome and the cytotoxicity of the cytostatics is intensified

CC[C@]1(O)C[C@H]2CN(CCc3c([nH]c4ccccc34)[C@@](C(=O)OC)(c3cc4c(cc3OC)N(C=O)[C@H]3[C@@](O)(C(=O)OC)[C@H](OC(C)=O)[C@]5(CC)C=CCN6CC[C@]43[C@@H]65)C2)C1 [Vincristine, reference compound]
inhibition at 0.005 µM ([2]; MOLT/VCR-5 × 9, vincristine 5 × 10^-9 M by itself, 72.5 to 73.25 h, vs DMSO control, read-out: Growth inhibition in %, cytostatic by itself): 0%
inhibition at 1.08 µM ([3]; Homo sapiens, CCRF-CEM/VCR-1000, CCRF CEM VCR1000+, vincristine 1.08 × 10^-6 M by itself, 72.5 to 73.25 h, vs DMSO control, read-out: Growth inhibition in %, cytostatic by itself): 0%
